Target: T1, SaDHPS (Staphylococcus aureus, UniProt O05701, R204H/P216R)
T1 construct: gene folP
Settings: read-out: SaDHPS + SIZ-2FITC / IC50 (ng/mL); tracer SIZ-2FITC; 4 mM DHPPP, 40 mM Mg2+ in reaction buffer, pH 8.0, 37 C, 2 min

NS(=O)(=O)c1ccccc1 [BSN]
IC50: 0.0551 µM

Reference: paper PMC10534214 (Food Chemistry: X, 2023)
